According to US20090117140A1, “Human papilloma virus dominant CD4 T cell epitopes and uses thereof” (priority 2007, published 2009):
“Also recorded” adds a separate entry of the source.

B1: E7 protein: recombinant HPV 16 E7 protein pulsed to autologous mature dendritic cells (protein)
chain: MHGDTPTLHEYMLDLQPETTDLYCYEQLNDSSEEEDEIDGPAGQAEPDRAHYNIVTFCCKCDSTLRLCVQSTHVDIRTLEDLLMGTLGIVCPICSQKP

How the values were obtained:
[1] = test system: E7 56-70 specific T-cell clones from subject 15-04; test: Enzyme-linked immunospot assays defining the core sequence of the CD4 T-cell epitope; settings: for Response (spot-forming units) among the six overlapping 10-mer peptides: FIG. 3A, three of the four T-cell clones tested; for Response (spot-forming units) among the six overlapping 10-mer peptides / Number of spot-forming units, 15-mer, 11-mer, 10-mer and 9-mer peptides compared: peptide concentration 10 μM; for Number of spot-forming units, 15-mer, 11-mer, 10-mer and 9-mer peptides compared: FIG. 3B; for Number of spot-forming units with serially diluted peptides: FIG. 3C, clones #45 and #207
[2] = test system: Human Leukocyte Antigen class II molecule; test: Enzyme-linked immunospot assay identifying the restricting Human Leukocyte Antigen molecule; settings: allogeneic B-lymphoblastoid cell line cells sharing class II molecules with subject 15-04, E7 56-70 peptide used in the assay
[3] = test system: Human Leukocyte Antigen molecule; settings: from the literature; cited from earlier work
[4] = test system: T-cell clones from subject 15-04; test: Enzyme-linked immunospot assay for exogenous presentation (pulsed autologous dendritic cells); settings: FIG. 2B; clones #11, #207, #304; 2.5×10^3 dendritic cells per well

Molecule	Number of spot-forming units, 15-mer, 11-mer, 10-mer and 9-mer peptides compared [1]	Restriction element of described epitope [3]	other results
CCKCDSTLRL (E7 58-67 peptide from immunodominant epitope region of Human Papilloma Virus 16 E7 protein)	Equally large numbers of spot-forming units; also recorded: equally high number of spot-forming units		Response (spot-forming units) among the six overlapping 10-mer peptides [1]: strongest response; also recorded: highest number of spot-forming units; Number of spot-forming units with serially diluted peptides [1]: equivalent numbers of spot forming units; also recorded: equivalent numbers of spot-forming units
CCKCDSTLRLC (E7 58-68 peptide from immunodominant epitope region of Human Papilloma Virus 16 E7 protein)	Equally large numbers of spot-forming units; also recorded: equally high number of spot-forming units		Restriction element [2]: Human Leukocyte Antigen-DR17 molecule; Restriction element ([2]; listed as HPV 16 E7 58-68): Human Leukocyte Antigen-DR17 molecule; Restriction element ([2]; listed as novel CD4 T-cell epitope): Human Leukocyte Antigen-DR 17 molecule; Restriction element ([2]; listed as novel HPV 16 E7 CD4 T-cell epitope): Human Leukocyte Antigen-DR17 molecule; Number of spot-forming units with serially diluted peptides [1]: equivalent numbers of spot forming units; also recorded: equivalent numbers of spot-forming units
CKCDSTLRLC (E7 59-68 peptide from immunodominant epitope region of Human Papilloma Virus 16 E7 protein)	Equally large numbers of spot-forming units; also recorded: equally high number of spot-forming units		Response (spot-forming units) among the six overlapping 10-mer peptides [1]: strongest responses; also recorded: highest number of spot-forming units; Number of spot-forming units with serially diluted peptides [1]: equivalent numbers of spot forming units; also recorded: equivalent numbers of spot-forming units
E6 43-57: previously described HPV 18 E6 CD4 epitope (EVFEFAFKDLFVVYR; UniProt P06463 43-57, looked up, fragment)		Human Leukocyte Antigen-DRB1*15	
E6 127-141: previously described HPV 16 E6 CD4 epitope (DKKQRFHNIRGRWTG; UniProt P03126 127-141, looked up, fragment)		Human Leukocyte Antigen-DRB1*01	
E7 35-50: previously described Human Papilloma virus-specific CD4 T-cell epitope of the E7 protein (EDEIDGPAGQAEPDRA; UniProt P03129 35-50, looked up, fragment)		Human Leukocyte Antigen-DQ2	
E7 43-77: previously described Human Papilloma virus-specific CD4 T-cell epitope of the E7 protein (GQAEPDRAHYNIVTFCCKCDSTLRLCVQSTHVDIR; UniProt P03129 43-77, looked up, fragment)		Human Leukocyte Antigen-DR3	
E7 50-62: previously described Human Papilloma virus-specific CD4 T-cell epitope of the E7 protein (AHYNIVTFCCKCD; UniProt P03129 50-62, looked up, fragment)		Human Leukocyte Antigen-DR15	
E7 59-67: 9-mer peptide of HPV 16 E7 contained in the 11-mer E7 58-68 (CKCDSTLRL; UniProt P03129 59-67, looked up, fragment)	negative repeatedly		
E7 60-68: 9-mer peptide of HPV 16 E7 contained in the 11-mer E7 58-68 (KCDSTLRLC; UniProt P03129 60-68, looked up, fragment)	negative repeatedly		
E7 61-80: previously described Human Papilloma virus-specific CD4 T-cell epitope of the E7 protein (CDSTLRLCVQSTHVDIRTLE; UniProt P03129 61-80, looked up, fragment)		Human Leukocyte Antigen-DR9	
EPDRAHYNIVTFCCKCDSTLRLCVQ (E7 46-70 peptide from immunodominant epitope region of Human Papilloma Virus 16 E7 protein) [HPV type 16 E7 46-70]			Restriction element [2]: Human Leukocyte Antigen major histocompatibility complex class II molecule
HPV 16 E7 71-85: previously described HPV 16 E7 epitope, 15 amino acids long (STHVDIRTLEDLLMG; UniProt P03129 71-85, looked up, fragment)		Human Leukocyte Antigen-DQB1*02	
LEDLLMGTL (E7 79-87 control peptide from immunodominant epitope region of Human Papilloma Virus 16 E7 protein) [HPV 16 E7 79-87]		Human Leukocyte Antigen-B69	
B1			Response (interferon-γ secretion) of T-cell clones to pulsed autologous dendritic cells [4]: demonstrated interferon-γ secretion; also recorded: positive responses
